# Results as given in US20130065227A1, “METHODS OF INCREASING MACROPINOCYTOSIS IN CANCER CELLS” (priority 2010, published 2013).
# Experiments:
# [1] = test system: DU145; test: Stimulation of macropinocytosis (dextran uptake); type: cell-based
# Experimental: (Panel A) DU145 cells were treated with 10 μM tAS1411 or 10 μM tCRO or no oligonucleotide in complete DMEM medium at 37° C. for the time indicated. After treatment, cell medium was changed for fresh complete medium containing 0.2 mg/ml dextran-10K labeled with Alexa Fluor 488, and cells were incubated for 30 min at 37° C. After incubation, cells were harvested and analyzed by flow cytometry to determine dextran uptake. (Panel B) The same experiment was performed using Hs27 cells. (Panel C) DU145 cells were treated with 10 μM tAS1411 or 10 μM tCRO or no oligonucleotide in complete DMEM medium at 37° C. for 48 h. After treatment, cell medium was changed for fresh complete medium containing 0.2 mg/ml dextran-10K tagged with Alexa Fluor 488, and cells were incubated for 30 min at 37° C. Then, cells were washed with cold PBS, added PBS containing 5 μg/ml PI and incubated on ice for 5 min. After washing with cold PBS, cells were fixed and the distribution of macropinocytic marker was visualized by confocal microscopy. The nucleus was stained with DAPI (blue). Scale bars, 10 μm. All experiments have been repeated at least three times. Data are mean of three independent samples; bars, SE; *(p<0.05).
# FIG. 6 are graphs showing that nucleolin regulates AS1411-induced stimulation of macropinocytosis. DU145 cells were untreated (no transfection) or transfected, without siRNA (mock), or with 30 nM of one of three different nucleolin siRNAs (NCL1, NCL2, NCL3) or a control siRNA (scramble). 48 h after transfection, cells were incubated with 10 μM tAS1411, 10 μM tCRO, or no oligonucleotide in complete DMEM medium at 37° C. for 24 h. (Panel A) After treatment, cell medium was changed for fresh complete medium containing 0.2 mg/ml dextran-10K labeled with Alexa Fluor 488 (green) and incubated for 30 min at 37° C. (Panel B) After treatment, some cells were washed, fresh complete medium containing 10 μM FL-AS1411 added and incubated for 2 h at 37° C. After incubation, cells were harvested and analyzed by flow cytometry. Mean fluorescence was normalized to “not transfected” control (Panel A) or to no pre-treatment control (Panel B). All experiments have been repeated at least three times. Data are the mean of three independent samples; bars, SE; *(p<0.05).
# FIG. 11 is a graph showing a comparison between AS1411 and tAS1411 in the ability to stimulate macropinocytosis. DU145 cells were plated 18 hr before treatment with different concentrations (0, 5, 10, or 15 μM) of AS1411, tAS1411 or tCRO in complete DMEM medium at 37° C. for 48 h. After treatment, cell medium was changed for fresh complete medium containing 0.2 mg/ml dextran-10K labeled with Alexa Fluor 488, and cells were incubated for 30 min at 37° C. After incubation, cells were incubated on ice with […] PI in PBS, harvested, fixed and immediately analyzed by flow cytometry.
# (§1) To analyze uptake of the oligodeoxynucleotides or dextran-10K (macropinocytic marker) by flow cytometry, 2×10^5 cells in fresh supplemented culture medium (2.5 ml) were plated into 6-well plates for 18 h. After complete adhesion, the cells were incubated with 5′-FAM tagged oligodeoxynucleotides or Alexa Fluor 488 tagged dextran-10K and incubated as indicated in the Description of the Drawings. Cells were washed once with ice-cold PBS, incubated with 1 μg/ml 7-amino-actinomycin D (7-AAD) for 5 min on ice or 1 μg/ml propidium iodide (PI), and washed twice with ice-cold PBS. Cells were then treated with 0.01% trypsin/0.5 mM EDTA (300 μl) for 3 min prior addition 3 ml supplemented culture medium. The cells were then centrifuged and resuspended in 0.5 ml of 1% paraformaldehyde for analysis by flow cytometry using a FACScalibur cytometer (BD Biosciences, Mountain View, Calif.).
# AS1411 causes a change in cancer cell morphology that is characterized by vacuolization, irregular nuclei, and swollen cells (Xu et al., 2001, J. Biol. Chem., 276:43221-30). […]
# [2] = test system: MCF10A; test: Stimulation of macropinocytosis (dextran uptake); type: cell-based, human; settings: MCF-10A, 10 μM for 48 hr or 72 hr
# Experimental: FIG. 10 are graphs showing the stimulation of macropinocytosis by GROs. Breast carcinoma cells (MDA-MB-231, MCF-7) or non-malignant breast epithelial cells (MCF10A) cells were plated 18 hr before treatment with 10 μM tAS1411 or 10 μM tCRO or water in complete DMEM medium at 37° C. for 48 hr or 72 hr. After treatment, cell medium was changed for fresh complete medium containing 0.2 mg/ml dextran-10K labeled with Alexa Fluor 488 and cells were incubated for 30 min at 37° C. Cells were then incubated on ice with 1 mg/ml PI in PBS, harvested, and analyzed by flow cytometry. Uptake was normalized to no pre-treatment controls and bars show the mean and SE of three independent experiments. […]
# (§2) AS1411 causes a change in cancer cell morphology that is characterized by vacuolization, irregular nuclei, and swollen cells (Xu et al., 2001, J. Biol. Chem., 276:43221-30). […] To test this idea, DU145 cells were pre-treated for 24 h with tAS1411, then added FL-AS1411 and evaluated uptake after an additional 2 h using flow cytometry. […] This idea is not necessarily inconsistent with the time course data shown in FIG. 1A because the fluorescence signal may decrease over time for a number of reasons, including exocytosis of the ligand and fluorescence quenching due to protein binding or environmental factors (the fluorophore used for flow cytometry is particularly sensitive to acidic environments). […]
# [3] = test system: MCF7; test: Stimulation of macropinocytosis (dextran uptake); type: cell-based; settings: MCF-7, 10 μM for 48 hr or 72 hr
# Experimental: (§3) FIG. 10 are graphs showing the stimulation of macropinocytosis by GROs. Breast carcinoma cells (MDA-MB-231, MCF-7) or non-malignant breast epithelial cells (MCF10A) cells were plated 18 hr before treatment with 10 μM tAS1411 or 10 μM tCRO or water in complete DMEM medium at 37° C. for 48 hr or 72 hr. After treatment, cell medium was changed for fresh complete medium containing 0.2 mg/ml dextran-10K labeled with Alexa Fluor 488 and cells were incubated for 30 min at 37° C. Cells were then incubated on ice with 1 mg/ml PI in PBS, harvested, and analyzed by flow cytometry. Uptake was normalized to no pre-treatment controls and bars show the mean and SE of three independent experiments.
# as §1
# (§4) AS1411 causes a change in cancer cell morphology that is characterized by vacuolization, irregular nuclei, and swollen cells (Xu et al., 2001, J. Biol. Chem., 276:43221-30). Therefore, the effect of AS1411 on macropinocytosis in DU145 cells and non-malignant Hs27 cells was investigated. […] As in all of the flow cytometry experiments, cells were gated to exclude permeable cells, discounting the possibility that this increase was due to cell death. […] One implication of the finding that AS1411 causes hyperstimulation of macropinocytosis is that treatment of AS1411 might actually promote its own internalization by cancer cells. To test this idea, DU145 cells were pre-treated for 24 h with tAS1411, then added FL-AS1411 and evaluated uptake after an additional 2 h using flow cytometry. […] This idea is not necessarily inconsistent with the time course data shown in FIG. 1A because the fluorescence signal may decrease over time for a number of reasons, including exocytosis of the ligand and fluorescence quenching due to protein binding or environmental factors (the fluorophore used for flow cytometry is particularly sensitive to acidic environments). […]
# [4] = test system: MDA-MB-231; test: Stimulation of macropinocytosis (dextran uptake); type: cell-based; settings: MDA-MB-231, 10 μM for 48 hr or 72 hr
# Experimental: as §3, §1, §4
# [5] = test system: Hs27; test: Stimulation of macropinocytosis (dextran uptake); type: cell-based, human; settings: 10 μM for 24, 48, or 72 h, flow cytometry
# Experimental: (Panel A) DU145 cells were treated with 10 μM tAS1411 or 10 μM tCRO or no oligonucleotide in complete DMEM medium at 37° C. for the time indicated. After treatment, cell medium was changed for fresh complete medium containing 0.2 mg/ml dextran-10K labeled with Alexa Fluor 488, and cells were incubated for 30 min at 37° C. After incubation, cells were harvested and analyzed by flow cytometry to determine dextran uptake. (Panel B) The same experiment was performed using Hs27 cells. (Panel C) DU145 cells were treated with 10 μM tAS1411 or 10 μM tCRO or no oligonucleotide in complete DMEM medium at 37° C. for 48 h. […]
# as §2
# [6] = test system: DU145 cells; test: FL-AS1411 uptake after tAS1411 pre-treatment (flow cytometry); type: cell-based; settings: 10 μM pre-treatment for 24 h, then 10 μM FL-AS1411 2 h
# Experimental: FIG. 6 are graphs showing that nucleolin regulates AS1411-induced stimulation of macropinocytosis. DU145 cells were untreated (no transfection) or transfected, without siRNA (mock), or with 30 nM of one of three different nucleolin siRNAs (NCL1, NCL2, NCL3) or a control siRNA (scramble). 48 h after transfection, cells were incubated with 10 μM tAS1411, 10 μM tCRO, or no oligonucleotide in complete DMEM medium at 37° C. for 24 h. (Panel A) After treatment, cell medium was changed for fresh complete medium containing 0.2 mg/ml dextran-10K labeled with Alexa Fluor 488 (green) and incubated for 30 min at 37° C. […] After incubation, cells were harvested and analyzed by flow cytometry. Mean fluorescence was normalized to “not transfected” control (Panel A) or to no pre-treatment control (Panel B). […]
# FIG. 12 are graphs showing the effectiveness of pre-treatment of cells with a GRO. […] After incubation, cells were incubated on ice with 1 mg/ml PI in PBS, harvested, fixed and immediately analyzed by flow cytometry. […]
# AS1411 causes a change in cancer cell morphology that is characterized by vacuolization, irregular nuclei, and swollen cells (Xu et al., 2001, J. Biol. Chem., 276:43221-30). […] To test this idea, DU145 cells were pre-treated for 24 h with tAS1411, then added FL-AS1411 and evaluated uptake after an additional 2 h using flow cytometry. […]
# [7] = test system: Hs27 cells; test: as above; type: cell-based, human; settings: 10 μM pre-treatment for 24 h, then 10 μM FL-AS1411 2 h
# Experimental: FIG. 12 are graphs showing the effectiveness of pre-treatment of cells with a GRO. DU145 or Hs27 cells were treated with or without 10 μM tAS1411 in complete DMEM medium at 37° C. for 24 h. After treatment, cells were washed, fresh complete medium containing 10 μM FL-AS1411 was added, and cells were incubated for a further 2 h at 37° C. After incubation, cells were incubated on ice with 1 mg/ml PI in PBS, harvested, fixed and immediately analyzed by flow cytometry.
# To analyze uptake of the oligodeoxynucleotides or dextran-10K (macropinocytic marker) by flow cytometry, 2×10^5 cells in fresh supplemented culture medium (2.5 ml) were plated into 6-well plates for 18 h. […]
# AS1411 causes a change in cancer cell morphology that is characterized by vacuolization, irregular nuclei, and swollen cells (Xu et al., 2001, J. Biol. Chem., 276:43221-30). […] To test this idea, DU145 cells were pre-treated for 24 h with tAS1411, then added FL-AS1411 and evaluated uptake after an additional 2 h using flow cytometry. […] This idea is not necessarily inconsistent with the time course data shown in FIG. 1A because the fluorescence signal may decrease over time for a number of reasons, including exocytosis of the ligand and fluorescence quenching due to protein binding or environmental factors (the fluorophore used for flow cytometry is particularly sensitive to acidic environments).
substance,measurement,setting,value
5′-d(TTTGGTGGTGGTGGTTGTGGTGGTGGTGG) [tAS1411],"uptake of the macropinocytic marker, dextran, after treatment","[1]; 10 μM for 24, 48, or 72 h, flow cytometry","significant increment in the uptake of the macropinocytic marker, dextran"
same,dextran uptake by confocal microscopy,"[1]; 10 μM for 48 h, versus untreated or CRO-treated cells",higher dextran uptake confined in large vesicle
same,stimulation of macropinocytosis,[2],much reduced effect
same,stimulation of macropinocytosis,[3],induce hyperstimulation of macropinocytosis
same,stimulation of macropinocytosis,[4],induce hyperstimulation of macropinocytosis
same,"uptake of the macropinocytic marker, dextran, after treatment",[5],no increase
same,uptake of FL-AS1411 after pre-treatment,[6],increase in the uptake of FL-AS1411
same,uptake of FL-AS1411 after pre-treatment,[7],no comparable increase
